Laboratory results from patent publication US20080269223A1, “Mouth Dissolvable and Meltable, and Water Dispersable Delivery Formulation” (priority 2004, published 2008).
Where two headings read alike, the source gives them in different places.

How the values were obtained:
[1] = tested on: human plasma protein; conditions: cited from earlier work
[2] = cited from earlier work
[3] = Dissolution time of mannitol forms in water; format: physicochemical; conditions: ratio 1:30 w/w with respect to water, 20° C.
Procedure: The filler is mannitol, preferably a form of spray dried mannitol. […] Accordingly, α form of spray dried mannitol is most preferred in accordance to the present invention. The α-form of mannitol has mean particle size diameter of about 150 micron and Haussner number of about 1.16, having dissolution time in water with a ratio of 1:30 with respect to water in w/w, not more than 5 seconds at 20° C. […] When the dissolution time of the α-form of spray dried mannitol is compared with the standard and granulated mannitol, it gave following gradation:—

Nc1nnc(-c2cccc(Cl)c2Cl)c(N)n1 [Lamotrigine, 3,5-diamino-b-[2,3-dichlorophenyl]-1,2,4-triazine]
displacement of other anti-epileptic drugs from protein binding sites ([1]; carbamazepine, phenytoin, phenobarbitol): does not displace | bound to human plasma protein [1]: approximately 55% | average half life ([2]; Lamotrigine alone): approximately 24 hours | effect of food on bioavailability ([2]; in vivo): not affected by food | half life ([2]; used concurrently with phenytoin): approximately 7.2 hours | half life ([2]; with Valproic Acid): approximately 59 hours

OC[C@@H](O)[C@@H](O)[C@H](O)[C@H](O)CO [granulated mannitol]
dissolution time in water [3]: 100 s

OCC(O)C(O)C(O)C(O)CO (stereo not drawn) [Spray dried α-mannitol, 1,2,3,4,5,6-hexanehexol]
dissolution time in water [3]: 5 s | dissolution time in water ([3]; listed as α-form of mannitol): not more than 5 seconds

OC[C@@H](O)[C@@H](O)[C@H](O)[C@H](O)CO [standard mannitol]
dissolution time in water [3]: 35 s
